Source: article PMC9090415, “Discovery of small molecule inhibitors of Plasmodium falciparum apicoplast DNA polymerase” (Journal of Enzyme Inhibition and Medicinal Chemistry, 2022)

Target: P. falciparum apicoplast DNA polymerase (Pf-apPOL) (Plasmodium falciparum, UniProt Q8ILY1)
Test: Fluorescence-based high-throughput DNA polymerase assay (molecular beacon), primary screen and dose-response
Assay type: biochemical
Conditions: for DNA Pol: 90 min, 10 µM; for % inhibition Apo pol 10' 2.5 / % inhibition Apo pol 10' 5 / % inhibition Apo pol 10' 10 / % inhibition Apo pol 10' 20 / % inhibition Apo pol 10' 40 / % inhibition Apo pol 10' 80: read at 10'; for % inhibition Apol 90' 2.5 / % inhibition Apol 90' 5 / % inhibition Apol 90' 10 / % inhibition Apol 90' 20 / % inhibition Apol 90' 40 / % inhibition Apol 90' 80 / % inhibition ApPOL 90' 2.5 / % inhibition ApPOL 90' 5 / % inhibition ApPOL 90' 10 / % inhibition ApPOL 90' 20 / % inhibition ApPOL 90' 40 / % inhibition ApPOL 90' 80: read at 90'; for % inhibition apPOL 180' 2.5 / % inhibition apPOL 180' 5 / % inhibition apPOL 180' 10 / % inhibition apPOL 180' 20 / % inhibition apPOL 180' 40 / % inhibition apPOL 180' 80: read at 180'; for % inhibition Apo pol 5' 2.5 / % inhibition Apo pol 5' 5 / % inhibition Apo pol 5' 10 / % inhibition Apo pol 5' 20 / % inhibition Apo pol 5' 40 / % inhibition Apo pol 5' 80: read at 5'; for % inhibition Apol 40' 2.5 / % inhibition Apol 40' 5 / % inhibition Apol 40' 10 / % inhibition Apol 40' 20 / % inhibition Apol 40' 40 / % inhibition Apol 40' 80: read at 40'
Method in brief: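 Single-point screening used 10 µM compound with 20 nM polymerase, 20 nM hairpin substrate and 6 µM dNTPs for 90 min at 25 °C. Confirmatory titrations (2.5–80 µM) followed fluorescence at three times, and IC50 was derived from a fit including a cooperativity term n.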

[1] = 186 hits, DNA Pol (screen value), unit not given
[2] = 'DNA Pol' (screen value), unit not given
[3] = first dose-response, concentration 40

Chain of P. falciparum apicoplast DNA polymerase (Pf-apPOL) (Q8ILY1 entry or part of it): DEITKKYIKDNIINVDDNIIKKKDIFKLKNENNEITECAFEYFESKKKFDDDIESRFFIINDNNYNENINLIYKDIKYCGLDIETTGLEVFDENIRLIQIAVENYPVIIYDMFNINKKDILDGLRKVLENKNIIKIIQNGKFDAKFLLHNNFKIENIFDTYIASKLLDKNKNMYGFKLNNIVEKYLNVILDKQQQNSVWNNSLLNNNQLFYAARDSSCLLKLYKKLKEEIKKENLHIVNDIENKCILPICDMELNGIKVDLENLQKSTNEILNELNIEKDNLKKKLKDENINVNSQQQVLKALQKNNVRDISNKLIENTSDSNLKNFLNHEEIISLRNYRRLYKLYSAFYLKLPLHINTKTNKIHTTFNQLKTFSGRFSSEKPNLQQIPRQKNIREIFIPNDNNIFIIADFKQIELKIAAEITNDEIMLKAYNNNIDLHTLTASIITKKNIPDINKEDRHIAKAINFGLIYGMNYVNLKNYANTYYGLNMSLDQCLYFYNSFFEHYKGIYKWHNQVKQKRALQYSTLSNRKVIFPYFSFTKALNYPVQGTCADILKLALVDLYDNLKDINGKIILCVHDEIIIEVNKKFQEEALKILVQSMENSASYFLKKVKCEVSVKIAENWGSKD

O=C(c1ccccc1)N1CCc2c(nc3cc(-c4ccccc4)[nH]n3c2=O)C1 [Molecule 30, O=C(N1CCc2c(C1)nc1n(c2=O)[nH]c(c1)c1ccccc1)c1ccccc1]
DNA Pol [1]: 51
DNA Pol [2]: 51
% inhibition Apo pol 10' 2.5 (DRC-1, concentration 2.5): 12.9086%
% inhibition Apo pol 10' 5 (DRC-1, concentration 5): 15.849%
% inhibition Apo pol 10' 10 (DRC-1, concentration 10): 54.0092%
% inhibition Apo pol 10' 20 (DRC-1, concentration 20): 76.4447%
% inhibition Apo pol 10' 40 (DRC-1, concentration 40): 86.2157%
% inhibition Apo pol 10' 80 (DRC-1, concentration 80): 78.4105%
% inhibition Apol 90' 2.5 (DRC-1, concentration 2.5): 4.897%
% inhibition Apol 90' 5 (DRC-1, concentration 5): 3.579%
% inhibition Apol 90' 10 (DRC-1, concentration 10): 37.2459%
% inhibition Apol 90' 20 (DRC-1, concentration 20): 61.0288%
% inhibition Apol 90' 40 (DRC-1, concentration 40): 75.6472%
% inhibition Apol 90' 80 (DRC-1, concentration 80): 72.6232%
% inhibition apPOL 180' 2.5 (DRC-1, concentration 2.5): 0.553%
% inhibition apPOL 180' 5 (DRC-1, concentration 5): -2.049%
% inhibition apPOL 180' 10 (DRC-1, concentration 10): 22.4217%
% inhibition apPOL 180' 20 (DRC-1, concentration 20): 42.2339%
% inhibition apPOL 180' 40 (DRC-1, concentration 40): 59.6497%
% inhibition apPOL 180' 80 (DRC-1, concentration 80): 57.0627%
% inhibition Apo pol 5' (DRC-2, concentration 5): 18%
% inhibition Apo pol 5' (DRC-2, concentration 10): 37%
% inhibition Apo pol 5' (DRC-2, concentration 20): 50%
% inhibition Apo pol 5' (DRC-2, concentration 80): 37%
% inhibition Apol 40' (DRC-2, concentration 20): 61%
% inhibition ApPOL 90' (DRC-2, concentration 5): 18%
% inhibition ApPOL 90' (DRC-2, concentration 20): 60%
% inhibition ApPOL 90' (DRC-2, concentration 40): 61%
% inhibition ApPOL 90' (DRC-2, concentration 80): 60%
% inhibition apPOL 180' (DRC-2, concentration 20): 50%
% inhibition Apo pol 5' 2.5 (DRC-2, concentration 2.5): 6.51%
% inhibition Apo pol 5' 5 (DRC-2, concentration 5): 18%
% inhibition Apo pol 5' 10 (DRC-2, concentration 10): 37%
% inhibition Apo pol 5' 20 (DRC-2, concentration 20): 50%
% inhibition Apo pol 5' 40 (DRC-2, concentration 40): 48%
% inhibition Apo pol 5' 80 (DRC-2, concentration 80): 37%
% inhibition Apol 40' 2.5 (DRC-2, concentration 2.5): 6.57%
% inhibition Apol 40' 5 (DRC-2, concentration 5): 20%
% inhibition Apol 40' 10 (DRC-2, concentration 10): 41%
% inhibition Apol 40' 20 (DRC-2, concentration 20): 61%
% inhibition Apol 40' 40 (DRC-2, concentration 40): 62%
% inhibition Apol 40' 80 (DRC-2, concentration 80): 57%
% inhibition ApPOL 90' 2.5 (DRC-2, concentration 2.5): 5%
% inhibition ApPOL 90' 5 (DRC-2, concentration 5): 18%
% inhibition ApPOL 90' 10 (DRC-2, concentration 10): 39%
% inhibition ApPOL 90' 20 (DRC-2, concentration 20): 60%
% inhibition ApPOL 90' 40 (DRC-2, concentration 40): 61%
% inhibition ApPOL 90' 80 (DRC-2, concentration 80): 60%
% inhibition apPOL 180' 2.5 (DRC-2, concentration 2.5): 0.84%
% inhibition apPOL 180' 5 (DRC-2, concentration 5): 10%
% inhibition apPOL 180' 10 (DRC-2, concentration 10): 29%
% inhibition apPOL 180' 20 (DRC-2, concentration 20): 50%
% inhibition apPOL 180' 40 (DRC-2, concentration 40): 52%
% inhibition apPOL 180' 80 (DRC-2, concentration 80): 54%

O=C(O)CCS(=O)(=O)c1ccc(-c2ccc(S(=O)(=O)CCC(=O)O)cc2)cc1 [Molecule 32, OC(=O)CCS(=O)(=O)c1ccc(cc1)c1ccc(cc1)S(=O)(=O)CCC(=O)O]
DNA Pol ("DNA Pol" of the 186 hits list (screen value)): 40
% inhibition Apo pol 10' (DRC-1, concentration 2.5): 22.5031%
% inhibition Apo pol 10' (DRC-1, concentration 5): 45.6696%
% inhibition Apo pol 10' (DRC-1, concentration 10): 64.9587%
% inhibition Apo pol 10' (DRC-1, concentration 20): 75.2971%
% inhibition Apo pol 10' (DRC-1, concentration 40): 82.8671%
% inhibition Apo pol 10' (DRC-1, concentration 80): 87.3536%
% inhibition Apol 90' (DRC-1, concentration 2.5): 7.663%
% inhibition Apol 90' (DRC-1, concentration 5): 20.8234%
% inhibition Apol 90' (DRC-1, concentration 10): 43.1445%
% inhibition Apol 90' (DRC-1, concentration 20): 59.5248%
% inhibition Apol 90' (DRC-1, concentration 40): 71.1176%
% inhibition Apol 90' (DRC-1, concentration 80): 79.0648%
% inhibition apPOL 180' (DRC-1, concentration 2.5): -2.177%
% inhibition apPOL 180' (DRC-1, concentration 5): 7.502%
% inhibition apPOL 180' (DRC-1, concentration 10): 30.5046%
% inhibition apPOL 180' (DRC-1, concentration 20): 50.8957%
% inhibition apPOL 180' (DRC-1, concentration 40): 64.8259%
% inhibition apPOL 180' (DRC-1, concentration 80): 73.8924%
% inhibition Apo pol 5' (DRC-2, concentration 2.5): 15%
% inhibition Apo pol 5' (DRC-2, concentration 5): 24%
% inhibition Apo pol 5' (DRC-2, concentration 10): 39%
% inhibition Apo pol 5' (DRC-2, concentration 20): 43%
% inhibition Apo pol 5' (DRC-2, concentration 40): 49%
% inhibition Apo pol 5' (DRC-2, concentration 80): 51%
% inhibition Apol 40' (DRC-2, concentration 2.5): 10%
% inhibition Apol 40' (DRC-2, concentration 5): 15%
% inhibition Apol 40' (DRC-2, concentration 10): 31%
% inhibition Apol 40' (DRC-2, concentration 20): 40%
% inhibition Apol 40' (DRC-2, concentration 40): 53%
% inhibition Apol 40' (DRC-2, concentration 80): 63%
% inhibition ApPOL 90' (DRC-2, concentration 2.5): 5.57%
% inhibition ApPOL 90' (DRC-2, concentration 5): 8%
% inhibition ApPOL 90' (DRC-2, concentration 10): 26%
% inhibition ApPOL 90' (DRC-2, concentration 20): 37%
% inhibition ApPOL 90' (DRC-2, concentration 40): 52%
% inhibition ApPOL 90' (DRC-2, concentration 80): 65%
% inhibition apPOL 180' (DRC-2, concentration 2.5): -4.51%
% inhibition apPOL 180' (DRC-2, concentration 5): -2.16%
% inhibition apPOL 180' (DRC-2, concentration 10): 17%
% inhibition apPOL 180' (DRC-2, concentration 20): 32%
% inhibition apPOL 180' (DRC-2, concentration 40): 49%
% inhibition apPOL 180' (DRC-2, concentration 80): 64%
DNA Pol (primary screen value, DNA Pol): 40

Cn1nc(-c2nnc(-c3ccccc3F)o2)c2c1CCN(C(=O)c1ccccc1Cl)C2 [Molecule 34, Cn1nc(c2c1CCN(C2)C(=O)c1ccccc1Cl)c1nnc(o1)c1ccccc1F]
DNA Pol [1]: 48
DNA Pol [2]: 48
% inhibition Apo pol 10' 2.5 (DRC-1, concentration 2.5): 33%
% inhibition Apo pol 10' 5 (DRC-1, concentration 5): 44%
% inhibition Apo pol 10' 10 (DRC-1, concentration 10): 52%
% inhibition Apo pol 10' 20 (DRC-1, concentration 20): 58%
% inhibition Apo pol 10' 40 (DRC-1, concentration 40): 59%
% inhibition Apo pol 10' 80 (DRC-1, concentration 80): 63%
% inhibition Apol 90' 2.5 (DRC-1, concentration 2.5): 23%
% inhibition Apol 90' 5 (DRC-1, concentration 5): 35%
% inhibition Apol 90' 10 (DRC-1, concentration 10): 46%
% inhibition Apol 90' 20 (DRC-1, concentration 20): 54%
% inhibition Apol 90' 40 (DRC-1, concentration 40): 59%
% inhibition Apol 90' 80 (DRC-1, concentration 80): 65%
% inhibition apPOL 180' 2.5 (DRC-1, concentration 2.5): 17%
% inhibition apPOL 180' 5 (DRC-1, concentration 5): 28%
% inhibition apPOL 180' 10 (DRC-1, concentration 10): 41%
% inhibition apPOL 180' 20 (DRC-1, concentration 20): 50%
% inhibition apPOL 180' 40 (DRC-1, concentration 40): 58%
% inhibition apPOL 180' 80 (DRC-1, concentration 80): 64%
% inhibition Apo pol 5' (DRC-2, concentration 2.5): 20%
% inhibition Apo pol 5' (DRC-2, concentration 5): 20%
% inhibition Apo pol 5' (DRC-2, concentration 80): 39%
% inhibition Apol 40' (DRC-2, concentration 2.5): 22%
% inhibition Apol 40' (DRC-2, concentration 5): 27%
% inhibition Apol 40' (DRC-2, concentration 40): 49%
% inhibition Apol 40' (DRC-2, concentration 80): 52%
% inhibition ApPOL 90' (DRC-2, concentration 2.5): 22%
% inhibition ApPOL 90' (DRC-2, concentration 5): 27%
% inhibition ApPOL 90' (DRC-2, concentration 40): 52%
% inhibition apPOL 180' (DRC-2, concentration 20): 39%
% inhibition apPOL 180' (DRC-2, concentration 40): 49%
% inhibition apPOL 180' (DRC-2, concentration 80): 52%
% inhibition Apo pol 5' 2.5 (DRC-2, concentration 2.5): 20%
% inhibition Apo pol 5' 5 (DRC-2, concentration 5): 20%
% inhibition Apo pol 5' 10 (DRC-2, concentration 10): 24%
% inhibition Apo pol 5' 20 (DRC-2, concentration 20): 29%
% inhibition Apo pol 5' 40 (DRC-2, concentration 40): 38%
% inhibition Apo pol 5' 80 (DRC-2, concentration 80): 39%
% inhibition Apol 40' 2.5 (DRC-2, concentration 2.5): 22%
% inhibition Apol 40' 5 (DRC-2, concentration 5): 27%
% inhibition Apol 40' 10 (DRC-2, concentration 10): 34%
% inhibition Apol 40' 20 (DRC-2, concentration 20): 40%
% inhibition Apol 40' 40 (DRC-2, concentration 40): 49%
% inhibition Apol 40' 80 (DRC-2, concentration 80): 52%
% inhibition ApPOL 90' 2.5 (DRC-2, concentration 2.5): 22%
% inhibition ApPOL 90' 5 (DRC-2, concentration 5): 27%
% inhibition ApPOL 90' 10 (DRC-2, concentration 10): 36%
% inhibition ApPOL 90' 20 (DRC-2, concentration 20): 43%
% inhibition ApPOL 90' 40 (DRC-2, concentration 40): 52%
% inhibition ApPOL 90' 80 (DRC-2, concentration 80): 55%
% inhibition apPOL 180' 2.5 (DRC-2, concentration 2.5): 15%
% inhibition apPOL 180' 5 (DRC-2, concentration 5): 21%
% inhibition apPOL 180' 10 (DRC-2, concentration 10): 31%
% inhibition apPOL 180' 20 (DRC-2, concentration 20): 39%
% inhibition apPOL 180' 40 (DRC-2, concentration 40): 49%
% inhibition apPOL 180' 80 (DRC-2, concentration 80): 52%
% inhibition Apo pol 10' (first dose-response, concentration 10): 52%
% inhibition Apo pol 10' (first dose-response, concentration 20): 58%
% inhibition Apo pol 10' [3]: 59%
% inhibition Apol 90' [3]: 59%
% inhibition apPOL 180' [3]: 58%
